Laboratory results as given in publication PMC7914897, “Cytotoxic Potential of a-Azepano- and 3-Amino-3,4-SeCo-Triterpenoids” (International Journal of Molecular Sciences, 2021).

Key:
SF-539 (CNS cancer) = assay: NCI-60 screen (SRB, 48 h); conditions: Homo sapiens
[1] = tested on: NCI-H522 (NSC lung cancer); assay: NCI-60 screen (SRB, 48 h); conditions: Homo sapiens
SR (Leukemia) = assay: NCI-60 screen (SRB, 48 h); assay type: cell-based; conditions: Homo sapiens
T-47D (Breast cancer) = assay: NCI-60 screen (SRB, 48 h); conditions: Homo sapiens, T47D
EKVX (NSC lung cancer) = assay: NCI-60 screen (SRB, 48 h); conditions: Homo sapiens
786-0 (Renal cancer) = assay: NCI-60 screen (SRB, 48 h); conditions: Homo sapiens
SK-MEL-5 (Melanoma) = assay: NCI-60 screen (SRB, 48 h); conditions: Homo sapiens
RPMI-8226 (Leukemia) = assay: NCI-60 screen (SRB, 48 h); conditions: Homo sapiens
UACC-257 (Melanoma) = assay: NCI-60 screen (SRB, 48 h); conditions: Homo sapiens
K-562 (Leukemia) = assay: NCI-60 screen (SRB, 48 h); conditions: Homo sapiens
CNS cancer subpanel = assay: NCI-60 screen, subpanel; conditions: Homo sapiens
[2] = tested on: NCI/ADR-RES (Ovarian cancer); assay: NCI-60 screen (SRB, 48 h); conditions: Homo sapiens
MALME-3M (Melanoma) = assay: NCI-60 screen (SRB, 48 h); conditions: Homo sapiens
SF-268 (CNS cancer) = assay: NCI-60 screen (SRB, 48 h); conditions: Homo sapiens
OVCAR-8 (Ovarian cancer) = assay: NCI-60 screen (SRB, 48 h); conditions: Homo sapiens, OVCAR-8
Prostate cancer subpanel = assay: NCI-60 screen, subpanel; conditions: Homo sapiens
HL-60(TB) (Leukemia) = assay: NCI-60 screen (SRB, 48 h); assay type: cell-based; conditions: Homo sapiens
KM12 (Colon cancer) = assay: NCI-60 screen (SRB, 48 h); conditions: Homo sapiens
MDA-MB-435 (Melanoma) = assay: NCI-60 screen (SRB, 48 h); assay type: cell-based; conditions: Homo sapiens
SK-MEL-28 (Melanoma) = assay: NCI-60 screen (SRB, 48 h); conditions: Homo sapiens
HT29 (Colon cancer) = assay: NCI-60 screen (SRB, 48 h); conditions: Homo sapiens
HS 578T (Breast cancer) = assay: NCI-60 screen (SRB, 48 h); conditions: Homo sapiens
OVCAR-4 (Ovarian cancer) = assay: NCI-60 screen (SRB, 48 h); assay type: cell-based; conditions: Homo sapiens

Cc1ccc(S(=O)(=O)OC[C@]23CCC(C)(C)C[C@H]2C2=CC[C@@H]4[C@@]5(C)CCCNC(C)(C)[C@@H]5CC[C@@]4(C)[C@]2(C)CC3)cc1 [Compound 15]
GI50 (SF-539 (CNS cancer); SF-539): 1.71 µM | IC (TGI) (SF-539 (CNS cancer); SF-539, 48 h, read-out: TGI): 3.15 µM | CC50 (SF-539 (CNS cancer); SF-539, read-out: LC50): 5.79 µM | GI50 ([1]; NCI-H522): 1.69 µM | IC (TGI) ([1]; NCI-H522, 48 h, read-out: TGI): 3.38 µM | CC50 ([1]; NCI-H522, read-out: LC50): 6.78 µM | GI50 (SR (Leukemia)): 0.34 µM | CC50 (SR (Leukemia); read-out: LC50 (the source's name)): > 100 µM | GI50 (T-47D (Breast cancer)): 1.67 µM | IC (TGI) (T-47D (Breast cancer); 48 h, read-out: TGI): 3.31 µM | GI50 (EKVX (NSC lung cancer)): 1.48 µM | IC (TGI) (EKVX (NSC lung cancer); 48 h, read-out: TGI): 2.96 µM | GI50 (786-0 (Renal cancer); 786-0): 1.85 µM | IC (TGI) (786-0 (Renal cancer); 786-0, 48 h, read-out: TGI): 4.14 µM | GI50 (SK-MEL-5 (Melanoma); SK-MEL-5): 1.9 µM | IC (TGI) (SK-MEL-5 (Melanoma); SK-MEL-5, 48 h, read-out: TGI): 3.68 µM | GI50 (RPMI-8226 (Leukemia); RPMI-8226): 2.03 µM | IC (TGI) (RPMI-8226 (Leukemia); RPMI-8226, 48 h, read-out: TGI): 4.42 µM | GI50 (UACC-257 (Melanoma); UACC-257): 1.85 µM | IC (TGI) (UACC-257 (Melanoma); UACC-257, 48 h, read-out: TGI): 3.54 µM | GI50 (K-562 (Leukemia); K562): 1.75 µM | CC50 (K-562 (Leukemia); K562, read-out: LC50): > 100 µM | IC (TGI) (CNS cancer subpanel; 48 h, read-out: TGI MG_MID): 4.11 µM | GI50 (CNS cancer subpanel; read-out: GI50 MG_MID): 1.78 µM | CC50 (CNS cancer subpanel; read-out: LC50 MG_MID): 26.5 µM | GI50 [2]: 1.89 µM | IC (TGI) ([2]; 48 h, read-out: TGI): 3.93 µM | GI50 (MALME-3M (Melanoma)): 1.77 µM | IC (TGI) (MALME-3M (Melanoma); 48 h, read-out: TGI): 3.56 µM | GI50 (SF-268 (CNS cancer); SF-268): 2.32 µM | IC (TGI) (SF-268 (CNS cancer); SF-268, 48 h, read-out: TGI): 8.44 µM | CC50 (SF-268 (CNS cancer); SF-268, read-out: LC50): 67.9 µM | GI50 (OVCAR-8 (Ovarian cancer)): 1.99 µM | IC (TGI) (Prostate cancer subpanel; 48 h, read-out: TGI MG_MID): 3.27 µM | GI50 (Prostate cancer subpanel; read-out: GI50 MG_MID): 1.72 µM | CC50 (Prostate cancer subpanel; read-out: LC50 MG_MID): 6.35 µM | GI50 (HL-60(TB) (Leukemia)): 1.85 µM | IC (TGI) (HL-60(TB) (Leukemia); 48 h): 4.06 µM | GI50 (KM12 (Colon cancer); KM12): 1.82 µM | IC (TGI) (KM12 (Colon cancer); KM12, 48 h, read-out: TGI): 3.33 µM | GI50 (MDA-MB-435 (Melanoma); MDA-MB-435): 1.61 µM | IC (TGI) (MDA-MB-435 (Melanoma); MDA-MB-435, 48 h, read-out: TGI): 2.97 µM | GI50 (SK-MEL-28 (Melanoma); SK-MEL-28): 1.84 µM | IC (TGI) (SK-MEL-28 (Melanoma); SK-MEL-28, 48 h, read-out: TGI): 3.38 µM | GI50 (HT29 (Colon cancer); HT-29): 1.64 µM | IC (TGI) (HT29 (Colon cancer); HT-29, 48 h, read-out: TGI): 3.23 µM | GI50 (HS 578T (Breast cancer)): 1.82 µM | IC (TGI) (HS 578T (Breast cancer); 48 h, read-out: TGI): 4.08 µM | CC50 (HS 578T (Breast cancer); read-out: LC50): 9.14 µM | IC (TGI) (OVCAR-4 (Ovarian cancer); OVCAR-4, 48 h): 3.32 µM | GI50 (OVCAR-4 (Ovarian cancer); OVCAR-4, read-out: GI50): 1.69 µM
